Reference: PubChem BioAssay (NCI)
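Interpolation was linear, between the two tested concentrations surrounding the appropriate level; five concentrations were tested over 48 hours in 96-well plates. Here, GI50 denotes the concentration required for 50% inhibition of growth. TGI denotes the concentration required for complete inhibition of growth.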

Experiments:
Test in all cases: NCI anticancer screen, dose series, 48 h
OVCAR-8 ovarian = system: OVCAR-8 ovarian
HT29 colon = system: HT29 colon
HOP-62 NSCLC = system: HOP-62 NSCLC
IGROV1 ovarian = system: IGROV1 ovarian
MDA-N = system: MDA-N
NCI-H226 lung = system: NCI-H226 lung
MDA-MB-435 = system: MDA-MB-435
COLO 205 colon = system: COLO 205 colon
A498 renal = system: A498 renal
LOX IMVI melanoma = system: LOX IMVI melanoma

SMILES	TGI (OVCAR-8 ovarian) [µM]	TGI (HT29 colon) [µM]	TGI (HOP-62 NSCLC) [µM]	TGI (IGROV1 ovarian) [µM]	TGI (MDA-N) [µM]	TGI (NCI-H226 lung) [µM]	TGI (MDA-MB-435) [µM]	TGI (COLO 205 colon) [µM]	TGI (A498 renal) [µM]	TGI (LOX IMVI melanoma) [µM]	GI50 (OVCAR-8 ovarian) [µM]	GI50 (HT29 colon) [µM]	GI50 (HOP-62 NSCLC) [µM]	GI50 (IGROV1 ovarian) [µM]	GI50 (NCI-H226 lung) [µM]	GI50 (MDA-MB-435) [µM]	GI50 (COLO 205 colon) [µM]	GI50 (A498 renal) [µM]	GI50 (LOX IMVI melanoma) [µM]
COC(=O)C1=C(C(=O)OC)C2CCC1CC2=O (stereo not given)	> 100	> 100	> 100	> 100	> 100	> 100	> 100	> 100	> 100	> 100	–	–	–	–	–	–	–	–	–
O=C1CSC2(CC(/C=C/c3ccccc3[N+](=O)[O-])=NN2c2cccc(S(=O)(=O)O)c2)N1c1nc2ccccc2s1 (stereo not given)	28.6	69.1	–	36.1	50.6	44.1	28.1	> 75	38.7	34.5	–	–	–	–	–	–	–	–	–
c1ccc2c(CCNC3=NCCO3)cccc2c1	> 10	> 10	> 10	> 10	> 10	> 10	> 10	> 10	> 10	> 10	–	–	–	–	–	–	–	–	–
COc1ccc(OC)c2c1-c1nnnn1CCC2(C)C	> 100	> 100	> 100	> 100	> 100	> 100	> 100	> 100	> 100	> 100	–	–	–	–	–	–	–	–	–
C=CCOC1=C(OC(C)=O)C(C2COC(C)(C)O2)OC1=O (stereo not given)	> 100	38.4	> 100	> 100	> 100	> 100	46.2	36.9	> 100	24	–	–	–	–	–	–	–	–	–
Oc1ccccc1/C=N/N1C(=S)N(c2ccccc2)C(=Nc2ccccc2)C1=Nc1ccccc1	18.2	12.7	22.6	30.8	> 52.1	26.4	> 60	11.3	17.2	36.2	–	–	–	–	–	–	–	–	–
COc1ccc2oc(=O)c(-c3nc4ccccc4s3)cc2c1	36.9	33.1	> 48.1	38.9	> 67.2	> 63.1	> 47.1	> 100	54.2	49.5	–	–	–	–	–	–	–	–	–
CCN(CC)C(=O)N1CN(c2ccccc2)C2(CCN(CCCC3(c4ccc(F)cc4)OCCO3)CC2)C1=O	44.4	–	18.6	–	35.7	53.5	38.9	15.2	–	26.2	–	–	–	–	–	–	–	–	–
O=C1N(c2ccccc2)N=C2c3ccncc3C3=NN(c4ccccc4)C(=O)C123 (stereo not given)	> 100	> 100	> 100	> 100	–	> 100	> 100	6.12	> 100	> 100	–	–	–	–	–	–	–	–	–
C=C(C)[C@H]1C=C[C@@H](OC(C)=O)[C@@]2(COC(C)=O)[C@H](OC(=O)CCC)[C@H]3[C@@H](OC(C)=O)[C@@H](C)C[C@]3(O)C(=O)[C@@](C)(OC(C)=O)[C@H]12	> 100	> 100	–	> 100	–	> 100	44.2	65	> 100	> 100	–	–	–	–	–	–	–	–	–
CC(=O)Nc1ccc(C(=O)NN2C(=O)C(Cl)C2/C=C/c2ccccc2)cc1 (stereo not given)	> 100	> 100	> 100	> 100	–	> 100	–	> 100	–	–	–	–	–	–	–	–	–	–	–
O=C1C=C(NCCc2ccc(O)cc2)C(=O)C=C1NCCc1ccc(O)cc1	> 100	> 100	> 100	> 100	–	> 100	> 100	> 100	> 100	> 100	–	–	–	–	–	–	–	–	–
ClC1(Cl)C2CCOC21n1cnc2ccccc21 (stereo not given)	> 100	> 100	> 100	> 100	> 100	> 100	> 100	> 100	–	> 100	–	–	–	–	–	–	–	–	–
CC(C)N=C(NC#N)NS(=O)(=O)c1cnccc1NC1CCCCCCC1	> 100	> 100	> 100	> 100	> 100	> 100	> 100	> 100	> 100	–	–	–	–	–	–	–	–	–	–
Nc1[nH]nc2c1Cc1c(n(Cc3ccc(Cl)cc3)c3ccccc13)C(=O)N2	39.2	34.9	31.1	31.8	–	44.7	16.5	23.7	29.7	26.4	–	–	–	–	–	–	–	–	–
C[C@H](N)C(=O)Nc1ccc(-c2nc3ccccc3s2)cc1Cl	> 100	32.8	26	> 100	26.3	11.2	28.7	26.4	–	> 100	–	–	–	–	–	–	–	–	–
COC(=O)c1cc(OCc2cc(OCc3ccc(Br)cc3)cc(OCc3ccc(Br)cc3)c2)cc(OCc2cc(OCc3ccc(Br)cc3)cc(OCc3ccc(Br)cc3)c2)c1	–	–	> 100	–	> 100	> 100	> 100	> 100	> 100	–	–	–	–	–	–	–	–	–	–
O=C(O)c1cc2sc(C(=O)O)cc2s1	–	> 100	> 100	> 100	–	> 100	–	> 100	> 100	> 100	–	–	–	–	–	–	–	–	–
COc1ccc(/C=C/C(=O)N[C@@H]2C(=O)N3[C@@H]2SC(C)(C)[C@@H]3C(=O)O)cc1OC	> 100	> 100	> 100	–	> 100	> 100	> 100	> 100	> 100	> 100	–	–	–	–	–	–	–	–	–
O=c1oc2ccc([N+](=O)[O-])cc2cc1-c1csc(-c2ccccc2)n1	> 100	> 100	> 100	> 100	> 100	> 100	> 100	> 100	–	> 100	–	–	–	–	–	–	–	–	–
FC(F)(F)c1ccc(N=NN2CCCC2)cc1	–	> 100	> 100	> 100	> 100	> 100	> 100	> 100	> 100	> 100	–	–	–	–	–	–	–	–	–
CNC(=S)c1nnsc1N	> 100	–	> 100	> 100	> 100	> 100	> 100	> 100	> 100	> 100	–	–	–	–	–	–	–	–	–
Cc1cccc2c1CC1(Cc3c(C)cccc3C1=O)C2=O	> 100	> 100	> 100	> 100	> 100	–	> 100	–	> 100	> 100	–	–	–	–	–	–	–	–	–

SMILES	TGI (OVCAR-8 ovarian) [µM]	TGI (HT29 colon) [µM]	TGI (HOP-62 NSCLC) [µM]	TGI (IGROV1 ovarian) [µM]	TGI (MDA-N) [µM]	TGI (NCI-H226 lung) [µM]	TGI (MDA-MB-435) [µM]	TGI (COLO 205 colon) [µM]	TGI (A498 renal) [µM]	TGI (LOX IMVI melanoma) [µM]	GI50 (OVCAR-8 ovarian) [µM]	GI50 (HT29 colon) [µM]	GI50 (HOP-62 NSCLC) [µM]	GI50 (IGROV1 ovarian) [µM]	GI50 (NCI-H226 lung) [µM]	GI50 (MDA-MB-435) [µM]	GI50 (COLO 205 colon) [µM]	GI50 (A498 renal) [µM]	GI50 (LOX IMVI melanoma) [µM]
COc1ccc(C2=Nn3c(C)nnc3S/C2=C\c2ccc(-c3ccc([N+](=O)[O-])cc3)o2)cc1	15.9	43	> 100	42.7	29.8	46.2	17.9	–	89.8	30.3	–	–	–	–	–	–	–	–	–
COc1ccc(-c2cc(-c3ccncc3)nc(N)c2-c2ccc(F)cc2)cc1	> 100	> 100	> 100	> 100	–	> 100	> 100	97.3	> 100	> 100	–	–	–	–	–	–	–	–	–
Cc1nc2c(ccc3[nH]c4ccccc4c32)s1	> 100	31.3	40	> 100	> 100	98.7	64.7	37.8	34.9	–	–	–	–	–	–	–	–	–	–
O=[N+]([O-])c1ccc(N/N=C\c2ccc(O)cc2O)nc1	> 100	> 100	45	> 100	–	> 100	> 100	> 100	> 100	> 100	1.52	5.32	4.34	3.4	3.39	3.14	5.56	> 100	0.754
CC(=O)Oc1ccc(C2SCc3nc4ccccc4n32)cc1 (stereo not given)	> 100	> 100	> 100	> 100	> 63.8	–	59.4	56.3	73.8	> 100	–	–	–	–	–	–	–	–	–
FC1(F)SC2CCCCCCCCCCC2C1(F)F (stereo not given)	> 100	96.5	> 100	> 100	> 100	> 100	> 100	34.7	–	31.6	–	–	–	–	–	–	–	–	–
COc1cc(/C=C2\CCCC3=C2N=C2SC=NN2C3c2cc(OC)c(OC)c(OC)c2)cc(OC)c1OC (stereo not given)	29.8	7.41	–	–	–	–	5.17	–	3.89	–	3.23	3.07	–	–	–	2.04	–	1.48	–
NC(=O)NC(=O)c1cccc(C(=O)NC(N)=O)n1	> 100	> 100	> 100	–	> 100	> 100	> 100	–	> 100	> 100	–	–	–	–	–	–	–	–	–
O=CC1C(=O)Nc2nc3ccccc3n2C1c1ccccc1 (stereo not given)	46.1	41.2	20.2	27.3	–	36.9	44.8	26.2	28.8	23.1	–	–	–	–	–	–	–	–	–
Cc1cc(NS(=O)(=O)c2ccc(N=Nc3c(Nc4ccccc4)nn(-c4ccc(S(=O)(=O)Nc5ccncn5)cc4)c3C)cc2)no1	> 100	> 100	> 100	> 100	> 100	> 100	> 100	> 100	–	> 100	–	–	–	–	–	–	–	–	–
COC(=O)Cc1c(-c2c(CC(=O)OC)c3ccccc3n2C2OC(COC3OC(COC(C)=O)C(OC(C)=O)C(OC(C)=O)C3OC(C)=O)C(O)C(O)C2O)[nH]c2ccccc12 (stereo not given)	–	> 100	70.9	> 100	> 100	> 100	> 100	> 100	> 100	> 100	–	–	–	–	–	–	–	–	–
CSc1nc(NC2OC(CO)C(O)C(O)C2O)c(N)c(=O)[nH]1 (stereo not given)	> 100	> 100	> 100	> 100	–	> 100	–	> 100	> 100	> 100	–	–	–	–	–	–	–	–	–
O=C(O)Cc1ccc(-n2nnc3c(=O)[nH][nH]c(=O)c32)cc1	> 100	> 100	> 100	–	> 100	–	> 100	> 100	–	> 100	–	–	–	–	–	–	–	–	–
COC(=O)C(Cc1cc(OC)c(OC)c(OC)c1)(NC(=O)c1ccccc1)P(=O)(OC)OC (stereo not given)	> 100	> 100	> 100	> 100	–	> 100	–	> 100	> 100	> 100	–	–	–	–	–	–	–	–	–
COc1ccc(Nc2cnc3cc(N)ccc3n2)cc1OC	> 100	> 100	> 100	> 100	–	> 100	–	> 100	–	> 100	–	–	–	–	–	–	–	–	–
C[C@H](OC(=O)/C=C/c1ccc(O)c(O)c1)[C@H](C)OC(=O)/C=C/c1ccc(O)c(O)c1	26.2	> 100	26.6	31.5	18.4	–	77.3	50.3	51.7	22.6	–	–	–	–	–	–	–	–	–
COc1ccc(-c2nc3ccccc3c(=O)[nH]2)cc1OC	67.5	> 100	> 100	81.5	> 100	55.8	> 100	> 100	–	–	–	–	–	–	–	–	–	–	–
COc1cc(CNC(=O)CCCCCCCCCCSC#N)ccc1O	43.2	87.2	–	22.9	31.3	37.8	24.4	94.5	30.3	33	–	–	–	–	–	–	–	–	–
COc1ccccc1N1C(=O)/C(=C\c2ccccc2)SC1c1cc(OC)c(OC)c(OC)c1 (stereo not given)	> 100	> 100	> 100	–	48.6	> 100	46.5	> 100	> 100	50.3	–	–	–	–	–	–	–	–	–
O=c1ccc2c(Cl)sc(Cl)c2[nH]1	> 100	> 100	> 100	> 100	> 100	–	> 100	–	–	> 100	–	–	–	–	–	–	–	–	–
O=c1[nH]nc(-c2ccccc2)c2[nH]c3c(c12)CCCc1ccccc1-3	50.7	24.3	46.4	25	29.4	37.5	29.6	22.2	–	33.7	–	–	–	–	–	–	–	–	–
COC1=C2C[C@](OC)(C#CC=CC#CC2O)CC1(C)C (stereo not given in full)	> 100	> 100	> 100	63.2	> 100	> 100	> 100	> 100	–	> 100	–	–	–	–	–	–	–	–	–
O=[N+]([O-])c1cnccc1-n1nnc2ccccc21	50.8	> 100	59.3	47.6	–	49.8	–	72.8	92.1	32.8	–	–	–	–	–	–	–	–	–
